According to patent US9289417B2, “Compounds and methods for the modulation of sulfilimine bond formation” (VANDERBILT UNIVERSITY, priority 2009, dated 2016):
Entries after “also recorded” stand apart in the source; their conditions may differ.

How the values were obtained:
[1] = test system: type IV collagen NC1 domain sulfilimine crosslink formation; experiment: Type IV collagen NC1 domain sulfilimine crosslink (dimer) formation in matrix of cultured PF HR9 cells, western blot; format: cell-based, mouse; settings: for inhibition of NC1 dimer (D) formation: PF HR9 mouse endodermal cell matrix, anti-α2 chain western blot; for effect on NC1 domain sulfilimine crosslink (dimer) formation, in words: increasing concentrations, PF HR9 cell culture matrix, western blot
Description: FIG. 9. Methimazole and Phloroglucinol inhibit type IV collagen NC1 domain sulfilimine crosslink formation. NC1 domains were prepared from collagenase digests of extracellular matrix derived from cultured PF HR9 mouse endodermal cells and detected by western blotting with an anti-α2 chain monoclonal antibody.
Standard drug discovery strategies may identify other agents that specifically target the sulfilimine cross-link system with minimal inhibition of other peroxidase systems. In addition, a monoclonal antibody can be generated to inhibit enzyme activity. These agents represent anti-angiogenic oncologic agents that can be translated to clinical medicine with broad application.

human peroxidasin (PXDN) = target: T1, human peroxidasin (PXDN) (Homo sapiens, UniProt Q92626); experiment: NC1 domain dimerization by HEK293 cells stably transfected with human peroxidasin plated on monomeric PFHR9 matrix; format: cell-based; settings: concentration not given
T1 construct: expressed in transfected cells; host or cells: HEK293 (stably transfected)
T1 sequence (Q92626 27-1479): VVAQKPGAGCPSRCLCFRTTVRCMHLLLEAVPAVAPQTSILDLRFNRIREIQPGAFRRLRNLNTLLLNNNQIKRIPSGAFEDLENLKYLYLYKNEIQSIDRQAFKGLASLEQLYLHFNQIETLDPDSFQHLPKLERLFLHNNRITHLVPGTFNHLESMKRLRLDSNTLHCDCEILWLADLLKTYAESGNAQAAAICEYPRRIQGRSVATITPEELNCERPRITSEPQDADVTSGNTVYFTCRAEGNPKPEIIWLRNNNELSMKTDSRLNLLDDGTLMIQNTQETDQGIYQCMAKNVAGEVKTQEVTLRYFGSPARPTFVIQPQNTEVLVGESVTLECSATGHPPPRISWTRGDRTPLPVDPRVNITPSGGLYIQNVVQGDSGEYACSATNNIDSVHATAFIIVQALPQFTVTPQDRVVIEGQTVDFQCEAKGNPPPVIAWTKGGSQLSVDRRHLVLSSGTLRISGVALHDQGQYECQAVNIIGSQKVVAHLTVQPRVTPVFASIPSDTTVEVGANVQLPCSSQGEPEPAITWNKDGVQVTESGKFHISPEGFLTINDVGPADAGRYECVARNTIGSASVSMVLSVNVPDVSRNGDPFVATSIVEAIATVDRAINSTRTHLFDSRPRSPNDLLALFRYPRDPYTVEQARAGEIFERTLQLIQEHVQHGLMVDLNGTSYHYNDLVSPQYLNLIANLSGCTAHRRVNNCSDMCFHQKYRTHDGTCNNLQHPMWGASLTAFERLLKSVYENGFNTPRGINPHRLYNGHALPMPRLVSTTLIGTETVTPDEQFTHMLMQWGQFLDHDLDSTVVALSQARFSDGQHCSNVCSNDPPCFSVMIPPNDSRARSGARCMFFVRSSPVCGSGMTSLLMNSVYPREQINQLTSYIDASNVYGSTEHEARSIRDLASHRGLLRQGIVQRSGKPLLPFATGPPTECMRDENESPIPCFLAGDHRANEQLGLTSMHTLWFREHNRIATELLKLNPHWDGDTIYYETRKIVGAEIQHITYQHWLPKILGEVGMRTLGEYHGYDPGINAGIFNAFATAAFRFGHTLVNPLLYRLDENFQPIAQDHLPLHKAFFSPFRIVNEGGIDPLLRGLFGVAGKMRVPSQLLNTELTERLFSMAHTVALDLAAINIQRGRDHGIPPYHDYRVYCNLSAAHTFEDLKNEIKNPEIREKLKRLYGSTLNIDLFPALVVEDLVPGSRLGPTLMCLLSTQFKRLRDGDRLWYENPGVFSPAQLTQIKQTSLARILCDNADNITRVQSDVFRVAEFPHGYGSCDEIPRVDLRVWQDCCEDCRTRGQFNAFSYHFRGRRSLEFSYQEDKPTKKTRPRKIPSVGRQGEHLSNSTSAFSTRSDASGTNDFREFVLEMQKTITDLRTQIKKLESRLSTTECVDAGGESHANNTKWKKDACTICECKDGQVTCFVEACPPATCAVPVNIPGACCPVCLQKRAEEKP
From the text: FIG. 11. PXDN mediates NC1 domain dimerization. HEK293 stably transfected with human peroxidasin (PXDN) plated on top of monomeric PFHR9 matrix leads to NC1 domain dimerization (middle lanes). […] Placental basement membrane (PBM) NC1 domain is shown for comparison.
Based on these findings, they pursued peroxidasin, a known matrix peroxidase, as a possible candidate for collagen IV dimer and presumably sulfilimine bond formation. […] Peroxidasin was also identified as an endogenous component of the extracellular matrix produced by the HR-9 cells with the use of mass spectrometry.

Structure (SMILES) | inhibition of NC1 dimer (D) formation ([1]; Phloroglucinol at 5 uM) | inhibition of NC1 dimer (D) formation ([1]; Phloroglucinol at 50 uM) | effect on NC1 domain sulfilimine crosslink (dimer) formation, in words [1] | effect on NC1 domain sulfilimine crosslink (dimer) formation, in words ([1]; listed as phloroglucinol) | NC1 domain dimerization by PXDN transfected HEK293 cells in the presence of inhibitor (human peroxidasin (PXDN)) | effect on NC1 domain sulfilimine crosslink (dimer) formation, in words ([1]; listed as methimazole)
Oc1cc(O)cc(O)c1 [Phloroglucinol, phloroglucinol] | near complete inhibition | complete inhibition | inhibits dimer (D) formation more potently | inhibit cross-link formation | No dimer formation was observed; also recorded: fail to lead to dimerization | –
Cn1cc[nH]c1=S [Methimazole, methimazole] | – | – | decreases crosslinked NC1 dimer (D) while increasing non-crosslinked monomer (M) | – | – | inhibit cross-link formation
